Reference: the Kinase Knowledgebase extract (Sharma et al. 2016)

target: PIK3CG (human) (UniProt P48736); assay: Inhibition of PIK3CG Kinase Activity
Sequence (P48736 whole entry, looked up): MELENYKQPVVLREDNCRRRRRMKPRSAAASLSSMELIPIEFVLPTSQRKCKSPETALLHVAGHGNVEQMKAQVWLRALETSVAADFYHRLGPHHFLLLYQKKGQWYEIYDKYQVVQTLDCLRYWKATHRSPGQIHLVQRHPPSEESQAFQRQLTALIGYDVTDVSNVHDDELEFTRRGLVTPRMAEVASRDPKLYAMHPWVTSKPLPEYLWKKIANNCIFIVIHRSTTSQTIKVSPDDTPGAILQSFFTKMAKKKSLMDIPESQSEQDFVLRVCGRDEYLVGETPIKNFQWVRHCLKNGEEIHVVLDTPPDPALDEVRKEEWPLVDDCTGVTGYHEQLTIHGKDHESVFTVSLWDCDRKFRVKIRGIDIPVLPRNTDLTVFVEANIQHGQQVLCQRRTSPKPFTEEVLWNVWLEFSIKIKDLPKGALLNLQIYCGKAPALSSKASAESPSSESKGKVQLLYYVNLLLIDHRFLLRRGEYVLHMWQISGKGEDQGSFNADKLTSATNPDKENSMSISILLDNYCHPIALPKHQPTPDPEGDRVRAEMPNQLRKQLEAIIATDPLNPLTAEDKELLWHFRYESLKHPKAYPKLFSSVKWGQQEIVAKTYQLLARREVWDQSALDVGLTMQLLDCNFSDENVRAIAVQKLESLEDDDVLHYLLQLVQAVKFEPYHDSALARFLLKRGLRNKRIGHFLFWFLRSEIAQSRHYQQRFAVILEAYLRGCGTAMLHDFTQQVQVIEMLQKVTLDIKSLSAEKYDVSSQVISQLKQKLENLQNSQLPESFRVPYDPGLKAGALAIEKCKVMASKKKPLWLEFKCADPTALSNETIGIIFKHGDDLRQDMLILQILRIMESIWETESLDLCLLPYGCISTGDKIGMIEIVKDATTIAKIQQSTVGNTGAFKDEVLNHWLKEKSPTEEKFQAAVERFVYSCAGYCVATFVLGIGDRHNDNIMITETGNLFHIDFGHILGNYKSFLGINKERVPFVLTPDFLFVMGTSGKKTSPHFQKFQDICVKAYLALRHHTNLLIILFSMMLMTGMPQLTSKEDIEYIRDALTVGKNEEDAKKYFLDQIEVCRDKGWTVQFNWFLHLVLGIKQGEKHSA

N#CCn1cc(N2Cc3cc(-c4cncc(S(N)(=O)=O)c4)ccc3C2=O)cn1 and CCOc1ncc(-c2ccc3c(c2)CN(c2cnn(CC#N)c2)C3=O)cc1OC cannot be ordered by Ki: less than 100 nM for the first, less than 100 nM for the second.

Cc1cc(-c2cncc(C(=O)N(C)C(C)C)c2)nc2c1C(=O)N(c1cnn(CC(F)(F)F)c1)C2(C)C and Cc1cc(-c2cncc(N)c2)nc2c1C(=O)N(c1cnn(CC(F)(F)F)c1)C2(C)C cannot be ordered by Ki: less than 100 nM for the first, less than 100 nM for the second.

COc1cc(-c2cc(C)c3c(n2)CN(c2ccc(C(C)(C)O)nc2)C3=O)cnc1OC and COc1cc(-c2cc(C)c3c(n2)CN(c2cncc(CO)c2)C3=O)cnc1OC cannot be ordered by Ki: less than 100 nM for the first, less than 100 nM for the second.

CCn1ccc(N2C(=O)c3ccc(-c4cnc(OC)c(OC)c4)nc3[C@@H]2C)n1 and COc1cc(-c2ccc3c(n2)[C@@H](C)N(c2ccn(C[C@H](C)O)n2)C3=O)cnc1OC cannot be ordered by Ki: less than 100 nM for the first, less than 100 nM for the second.

COc1ccc(-c2cc(C)c3c(n2)C(C)(C)N(c2cnn(CC(F)F)c2)C3=O)nc1OC and COc1cc(-c2cc(C)c3c(n2)[C@@](C)(O)N(c2cnn(CC(F)(F)F)c2)C3=O)cnc1OC cannot be ordered by Ki: less than 100 nM for the first, less than 100 nM for the second.

Compared with COCc1cccc(-c2cc(C)c3c(n2)CN(c2cnn(C(C)(C)C#N)c2)C3=O)c1, COc1ccc(-c2cc(C)c3c(n2)CN(c2cnn(CC#N)c2)C3=O)cc1OC is lower in Ki: 100 to 490 nM for the first, less than 100 nM for the second.

CCOc1cncc(-c2cc(C)c3c(n2)CN(c2cnn(CC(F)F)c2)C3=O)c1 and Cc1cc(-c2cncc(F)c2)nc2c1C(=O)N(c1cnn(CC#N)c1)C2 cannot be ordered by Ki: less than 100 nM for the first, less than 100 nM for the second.

Cc1cc(-c2cncc(C(=O)NC(C)(C)C)c2)nc2c1C(=O)N(c1cnn(CC(F)(F)F)c1)C2 and Cc1cc(-c2cncc(O)c2)nc2c1C(=O)N(c1cnn(CC(F)(F)F)c1)C2 cannot be ordered by Ki: less than 100 nM for the first, less than 100 nM for the second.

COc1cc(-c2ccc3c(n2)CN(c2cc(C)[nH]n2)C3=O)cnc1OC and COc1cc(-c2ccc3c(n2)CN(c2ccn[nH]2)C3=O)cnc1OC cannot be ordered by Ki: less than 100 nM for the first, less than 100 nM for the second.

Cc1cc(-c2cncc(OCC(F)(F)F)c2)nc2c1C(=O)N(c1cnn(CC(F)(F)F)c1)[C@H]2C and Cc1cc(-c2cncc(OCC(F)(F)F)c2)nc2c1C(=O)N(c1cnn(CC(F)(F)F)c1)C2C (centres undefined) cannot be ordered by Ki: less than 100 nM for the first, less than 100 nM for the second.

Cc1cc(-c2cncc(OC(F)F)c2)nc2c1C(=O)N(c1cnn(C[C@H](C)O)c1)[C@@H]2C and COc1cncc(-c2cc(C)c3c(n2)[C@@H](C)N(c2cnn(CC(F)(F)F)c2)C3=O)c1 cannot be ordered by Ki: less than 100 nM for the first, less than 100 nM for the second.

COc1cc(-c2ccc3c(n2)CN(c2cnn(CCCO)c2)C3=O)cnc1OC and COCn1cc(N2Cc3nc(-c4cnc(OC)c(OC)c4)ccc3C2=O)cn1 cannot be ordered by Ki: less than 100 nM for the first, less than 100 nM for the second.

COc1cc(-c2cc(C)c3c(n2)CN(c2nccs2)C3=O)cnc1OC and COc1cc(-c2cc(C)c3c(n2)CN(c2cncs2)C3=O)cnc1OC cannot be ordered by Ki: less than 100 nM for the first, less than 100 nM for the second.

CCOc1cncc(-c2cc(C)c3c(n2)[C@@H](C)N(c2cnn(CC(F)(F)F)c2)C3=O)c1 and CCC1c2nc(-c3cncc(OC(F)F)c3)cc(C)c2C(=O)N1c1cnn(CC(F)(F)F)c1 (centres undefined) cannot be ordered by Ki: less than 100 nM for the first, less than 100 nM for the second.

COC(=O)CC1c2nc(-c3cnc(OC)c(OC)c3)ccc2C(=O)N1c1cnn(CC(F)(F)F)c1 (centres undefined) and COc1cc(-c2ccc3c(n2)CN(c2cnn(CC(F)(F)F)c2)C3=O)cnc1OC cannot be ordered by Ki: less than 100 nM for the first, less than 100 nM for the second.

COc1cc(-c2cc(C)c3c(n2)CN(c2ccn(C4CC4)n2)C3=O)cnc1OC and CCn1cc(N2Cc3nc(-c4cnc(OC)c(OC)c4)cc(C)c3C2=O)nn1 cannot be ordered by Ki: less than 100 nM for the first, less than 100 nM for the second.

COc1cc(-c2cc(C)c3c(n2)CN(c2cncc(OC(F)F)c2)C3=O)cnc1OC and Cc1cc(-c2cncc(OC(F)F)c2)nc2c1C(=O)N(c1cncc(CC#N)c1)C2 cannot be ordered by Ki: less than 100 nM for the first, less than 100 nM for the second.

First: COc1cc(-c2ccc3c(n2)CN(c2ccc(=O)n(C)c2)C3=O)cnc1OC
Second: COc1cc(-c2ccc3c(n2)CN(c2cccc(C(C)(C)C#N)n2)C3=O)cnc1OC
The Ki of the first is higher: 100 to 490 nM for the first, less than 100 nM for the second. The second binds more tightly here.

CCn1ccc(N2Cc3cc(-c4cnc(OC)c(OC)c4)ccc3C2=O)n1 and COc1cc(-c2ccc3c(n2)[C@@H](C)N(c2ccn(CC(F)(F)F)n2)C3=O)cnc1OC cannot be ordered by Ki: less than 100 nM for the first, less than 100 nM for the second.

C=C1c2nc(-c3cnc(OC)c(OC)c3)ccc2C(=O)N1c1cnn(CC(F)(F)F)c1 and C=C1c2nc(-c3cnc(OC)c(OC)c3)ccc2C(=O)N1c1cnn(CC#N)c1 cannot be ordered by Ki: less than 100 nM for the first, less than 100 nM for the second.

COc1ncc(-c2cc(C)c3c(n2)CN(c2cn[nH]c2)C3=O)cc1OCC(F)(F)F and COCCCOc1cc(-c2cc(C)c3c(n2)CN(c2cnn(CC(F)(F)F)c2)C3=O)cnc1OC cannot be ordered by Ki: less than 100 nM for the first, less than 100 nM for the second.

Compared with COc1cc(-c2ccc3c(n2)CN(c2ccc(N(C)CC(OC)OC)nc2)C3=O)cnc1OC, COc1cc(-c2ccc3c(n2)CN(c2ccc(N4CCN(CCC#N)CC4)nc2)C3=O)cnc1OC is lower in Ki: 100 to 490 nM for the first, less than 100 nM for the second. The second binds more tightly here.

COc1cc(-c2cc(C)c3c(n2)CN(c2nc(CO)cs2)C3=O)cnc1OC and COc1cc(-c2cc(C)c3c(n2)C2(CCOCC2)N(c2cnn(C(C)(C)C#N)c2)C3=O)cnc1OC cannot be ordered by Ki: less than 100 nM for the first, less than 100 nM for the second.

Cc1cc(-c2cnc(C)c(OCC(F)F)c2)nc2c1C(=O)N(c1cnn(CC(F)F)c1)C2C (centres undefined) and COc1cc(-c2ccc3c(n2)C(C)N(c2cn[nH]c2)C3=O)cnc1OC (centres undefined) cannot be ordered by Ki: less than 100 nM for the first, less than 100 nM for the second.

COc1cncc(-c2cc(C)c3c(n2)CN(c2ccn(CC(C)(C)F)n2)C3=O)c1 was tested, and the Ki was less than 100 nM.
